# ChEMBL document CHEMBL1152690, “The spirocyclopropyl moiety as a methyl surrogate in the structure of l-fucosidase and l-rhamnosidase inhibitors” (Bioorg Med Chem, 2009)
# Activity calls are given as the source filed them. The rule behind the calls is not given here.
# Legend:
# [1] = target: T1, Tissue alpha-L-fucosidase (Bos taurus, UniProt Q2KIM0); test: Inhibition of bovine kidney alpha-L-fucosidase by para-nitrophenolate release assay
# T1 sequence (Q2KIM0 whole entry): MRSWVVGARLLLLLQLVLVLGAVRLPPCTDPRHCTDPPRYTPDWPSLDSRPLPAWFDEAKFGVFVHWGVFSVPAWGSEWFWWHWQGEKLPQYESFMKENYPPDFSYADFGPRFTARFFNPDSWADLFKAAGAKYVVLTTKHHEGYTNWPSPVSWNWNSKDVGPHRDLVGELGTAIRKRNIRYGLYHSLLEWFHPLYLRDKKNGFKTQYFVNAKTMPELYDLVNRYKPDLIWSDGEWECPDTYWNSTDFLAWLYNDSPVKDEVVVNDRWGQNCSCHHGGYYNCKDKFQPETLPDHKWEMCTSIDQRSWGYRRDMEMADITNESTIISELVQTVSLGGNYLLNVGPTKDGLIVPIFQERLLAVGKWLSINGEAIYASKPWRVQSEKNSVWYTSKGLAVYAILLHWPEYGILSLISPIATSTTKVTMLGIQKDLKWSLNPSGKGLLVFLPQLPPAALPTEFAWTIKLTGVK
# [2] = target: T2, Tissue alpha-L-fucosidase (Bos taurus) (UniProt Q2KIM0); test: Inhibition of bovine kidney alpha-L-fucosidase at 1 mM by para-nitrophenolate release assay
# T2 sequence (whole entry): T1 sequence (Q2KIM0 whole entry)
# [3] = Inhibition of Penicillium decumbens Alpha-L-rhamnosidase by para-nitrophenolate release assay
# Penicillium decumbens [4] = test: Inhibition of Penicillium decumbens Alpha-L-rhamnosidase at 1 mM by para-nitrophenolate release assay
# Penicillium decumbens [5] = test: Inhibition of Penicillium decumbens lysosomal Alpha-L-rhamnosidase at 1 mM by para-nitrophenolate release assay
# [6] = target: T2, Tissue alpha-L-fucosidase (Bos taurus); settings: 1 mM
# Description: Inhibition of bovine lysosomal alpha-L-fucosidase at 1 mM by para-nitrophenolate release assay
# Coffea arabica = test: Inhibition of coffee bean alpha-galactosidase at 1 mM
# [7] = target: Beta-galactosidase (Escherichia coli) (UniProt Q8VNN2); test: Inhibition of Escherichia coli beta-galactosidase at 1 mM
# [8] = target: T3, Beta-galactosidase (Aspergillus oryzae) (UniProt Q2U7N3); test: Inhibition of Aspergillus oryzae beta-galactosidase at 1 mM
# T3 sequence (whole entry): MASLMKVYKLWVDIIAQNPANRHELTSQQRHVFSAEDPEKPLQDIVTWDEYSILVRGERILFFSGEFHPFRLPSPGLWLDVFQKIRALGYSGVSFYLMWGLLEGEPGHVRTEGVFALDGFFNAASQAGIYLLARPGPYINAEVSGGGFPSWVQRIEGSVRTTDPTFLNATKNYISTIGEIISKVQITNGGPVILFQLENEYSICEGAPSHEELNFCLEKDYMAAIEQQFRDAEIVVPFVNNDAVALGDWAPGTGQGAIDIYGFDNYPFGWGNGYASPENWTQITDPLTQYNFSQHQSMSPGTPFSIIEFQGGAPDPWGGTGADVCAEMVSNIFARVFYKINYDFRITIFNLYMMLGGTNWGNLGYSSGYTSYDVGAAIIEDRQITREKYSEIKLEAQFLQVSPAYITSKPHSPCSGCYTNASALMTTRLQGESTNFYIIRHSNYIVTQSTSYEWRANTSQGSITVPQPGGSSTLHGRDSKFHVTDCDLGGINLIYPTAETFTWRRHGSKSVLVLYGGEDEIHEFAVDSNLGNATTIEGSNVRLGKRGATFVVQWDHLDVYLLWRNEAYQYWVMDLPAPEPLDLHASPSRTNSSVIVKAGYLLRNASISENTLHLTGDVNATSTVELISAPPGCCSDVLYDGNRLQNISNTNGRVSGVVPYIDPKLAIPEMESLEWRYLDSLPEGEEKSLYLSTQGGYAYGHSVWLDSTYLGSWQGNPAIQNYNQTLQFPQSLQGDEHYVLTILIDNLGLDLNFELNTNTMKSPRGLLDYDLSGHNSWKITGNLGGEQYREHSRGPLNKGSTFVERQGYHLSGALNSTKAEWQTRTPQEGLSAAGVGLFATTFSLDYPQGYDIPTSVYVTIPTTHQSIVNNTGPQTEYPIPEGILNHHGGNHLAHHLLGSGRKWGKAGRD
# Saccharomyces cerevisiae = test: Inhibition of yeast alpha-glucosidase at 1 mM
# Oryza sativa = test: Inhibition of rice alpha-glucosidase at 1 mM
# Aspergillus niger [9] = test: Inhibition of Aspergillus niger amyloglucosidase at 1 mM
# Prunus dulcis = test: Inhibition of almond beta-glucosidase at 1 mM
# Canavalia ensiformis [10] = test: Inhibition of jack bean alpha-mannosidase at 1 mM
# Helix pomatia = test: Inhibition of snail beta-mannosidase at 1 mM
# Aspergillus niger [11] = test: Inhibition of Aspergillus niger beta-xylosidase at 1 mM
# Canavalia ensiformis [12] = test: Inhibition of jack bean beta-N-acetylglucosaminidase at 1 mM
# Bos taurus = species: Bos taurus; test: Inhibition of bovine kidney beta-N-acetylglucosaminidase at 1 mM
# Sequence of Beta-galactosidase (Escherichia coli) (Q8VNN2 whole entry, looked up): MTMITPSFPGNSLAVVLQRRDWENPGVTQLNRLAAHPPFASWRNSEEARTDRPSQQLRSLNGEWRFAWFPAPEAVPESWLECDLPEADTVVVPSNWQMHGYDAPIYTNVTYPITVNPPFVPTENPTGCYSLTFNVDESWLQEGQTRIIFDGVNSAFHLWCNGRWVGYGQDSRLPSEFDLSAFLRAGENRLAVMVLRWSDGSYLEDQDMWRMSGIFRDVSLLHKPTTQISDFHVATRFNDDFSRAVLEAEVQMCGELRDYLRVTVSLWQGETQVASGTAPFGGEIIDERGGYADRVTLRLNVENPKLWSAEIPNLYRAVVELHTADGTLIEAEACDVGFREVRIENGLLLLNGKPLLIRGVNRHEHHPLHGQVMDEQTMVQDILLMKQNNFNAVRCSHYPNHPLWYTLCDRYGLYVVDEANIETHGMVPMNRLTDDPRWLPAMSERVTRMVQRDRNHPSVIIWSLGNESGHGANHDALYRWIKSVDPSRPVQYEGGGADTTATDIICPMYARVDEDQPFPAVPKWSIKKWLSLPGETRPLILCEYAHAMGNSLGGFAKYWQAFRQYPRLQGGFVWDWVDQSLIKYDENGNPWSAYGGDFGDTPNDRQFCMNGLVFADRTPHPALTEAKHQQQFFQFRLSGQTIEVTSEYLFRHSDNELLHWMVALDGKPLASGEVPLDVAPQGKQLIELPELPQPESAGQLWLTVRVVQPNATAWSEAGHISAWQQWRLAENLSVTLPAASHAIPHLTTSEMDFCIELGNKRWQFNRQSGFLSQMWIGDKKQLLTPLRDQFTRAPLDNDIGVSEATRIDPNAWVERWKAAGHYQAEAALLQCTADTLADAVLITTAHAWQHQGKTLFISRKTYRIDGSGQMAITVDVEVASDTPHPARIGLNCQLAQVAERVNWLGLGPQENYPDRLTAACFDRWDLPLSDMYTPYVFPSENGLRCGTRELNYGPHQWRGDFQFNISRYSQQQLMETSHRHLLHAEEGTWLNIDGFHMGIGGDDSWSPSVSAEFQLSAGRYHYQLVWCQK
Structure (SMILES),Ki [1],inhibition [2],Ki [3],inhibition (Penicillium decumbens [4]),inhibition (Coffea arabica),inhibition [7],inhibition [8],inhibition (Saccharomyces cerevisiae),inhibition (Oryza sativa),inhibition (Aspergillus niger [9]),inhibition (Prunus dulcis),inhibition (Canavalia ensiformis [10]),inhibition (Helix pomatia),inhibition (Aspergillus niger [11]),inhibition (Canavalia ensiformis [12]),inhibition (Bos taurus),other results
C[C@H]1NC[C@H](O)[C@H](O)[C@H]1O,1000 nM,99%,1000 nM,–,–,–,–,–,–,–,–,–,–,–,–,–,–
C[C@@H]1N[C@@H](O)[C@@H](O)[C@H](O)[C@@H]1O,1 nM,–,–,–,–,–,–,–,–,–,–,–,–,–,–,–,–
C[C@@H]1NC[C@H](O)[C@H](O)[C@H]1O,–,–,–,0%,–,–,–,–,–,–,–,–,–,–,–,–,inhibition (Penicillium decumbens [5]): inactive; inhibition [6]: inactive
"C[C@@H]1C[C@H](O)C2[C@@H](O)[C@@H](O)CN2C1 (single isomer, unassigned)",–,–,30 nM,–,–,–,–,–,–,–,–,–,–,–,–,–,–
O[C@@H]1[C@@H](O)C=NC12CC2,–,19%,–,72%,inactive,inactive,inactive,inactive,inactive,inactive,inactive,inactive,inactive,inactive,inactive,inactive,–
COc1ccc(C[C@@H]2NC[C@@H](O)[C@H]2O)cc1,–,–,3200 nM,–,–,–,–,–,–,–,–,–,–,–,–,–,–
C[C@@H]1NC[C@H](O)[C@H]1O,–,–,5500 nM,–,–,–,–,–,–,–,–,–,–,–,–,–,–
C[C@@H]1N=C[C@H](O)[C@H]1O,–,–,140 nM,–,–,–,–,–,–,–,–,–,–,–,–,–,–
O[C@@H]1[C@@H](O)C2(CC2)NC[C@@H]1O,–,inactive,–,72%,inactive,inactive,inactive,inactive,inactive,inactive,inactive,inactive,inactive,inactive,inactive,inactive,–
O[C@H]1[C@H](O)CNC2(CC2)[C@H]1O,18000 nM,83%,–,inactive,inactive,inactive,inactive,inactive,inactive,inactive,inactive,inactive,inactive,inactive,inactive,inactive,–
O[C@H]1C=NC2(CC2)[C@H]1O,–,76%,57000 nM,87%,inactive,inactive,inactive,inactive,inactive,inactive,inactive,inactive,inactive,inactive,inactive,inactive,–
COc1ccc(C[C@@H]2NC[C@H](O)[C@H]2O)cc1,–,–,3000 nM,–,–,–,–,–,–,–,–,–,–,–,–,–,–
C[C@@H]1N=C[C@H](O)[C@@H]1O,10 nM,–,–,–,–,–,–,–,–,–,–,–,–,–,–,–,–
